The values below are quoted from earlier work in patent US20230104323A1, “FORMULATIONS OF POLYBASIC DRUGS TO REDUCE MULTI-ORGAN TOXICITY” (priority 2019, published 2023).

The test system of the data set is healthy subjects. The conditions noted are these: plazomicin injection.

For `CN[C@@H]1[C@@H](O)[C@@H](O[C@@H]2[C@@H](O)[C@H](O[C@H]3OC(CNCCO)=CC[C@H]3N)[C@@H](N)C[C@H]2NC(=O)[C@@H](O)CCN)OC[C@]1(C)O` [plazomicin], the “Nephrotoxicity and ototoxicity in humans” value is “no nephrotoxicity and ototoxicity”.
